Source: patent US8192962B2, “Processes for detecting toxic substances” (Daikin Industries, Ltd., priority 2001, dated 2012)

System: Metabolism protein genes
Assay: DNA chip mRNA expression in yeast, metabolism protein genes (Table 7)
Assay type: cell-based, Saccharomyces cerevisiae S288C
Summary of the method: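 First, S288C yeast grown in YPD at 25° C. are dosed in log phase with one toxicant (growth-inhibiting, not lethal) for 2 h. Next, total RNA is extracted and poly(A) mRNA isolated and reverse-transcribed with Cy3/Cy5-dUTP. Finally, whole-genome chip fluorescence is read relative to unexposed cells.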

C[S+](C)[O-] [(15), dimethylsulfoxide]
The level of expressed mRNA in the presence of chemical substance/The level of expressed mRNA in the absence of chemical substance (yeast gene YJL099W): 1.4 | level of expressed mRNA in the presence/in the absence of chemical substance (yeast gene YJL121C): 1.0 | level of expressed mRNA in the presence/in the absence of chemical substance (yeast gene YJL167W): 1.6 | The level of expressed mRNA in the presence of chemical substance/The level of expressed mRNA in the absence of chemical substance (yeast gene YJL172W): 1.2 | level of expressed mRNA in the presence/in the absence of chemical substance (yeast gene YJL216C): 1.2 | level of expressed mRNA in the presence/in the absence of chemical substance (yeast gene YJR077C): 1.5 | The level of expressed mRNA in the presence of chemical substance/The level of expressed mRNA in the absence of chemical substance (yeast gene YJR137C): 1.0 | level of expressed mRNA in the presence/in the absence of chemical substance (yeast gene YJR143C): 1.1 | The level of expressed mRNA in the presence of chemical substance/The level of expressed mRNA in the absence of chemical substance (yeast gene YKL035W): 1.0 | level of expressed mRNA in the presence/in the absence of chemical substance (yeast gene YKL060C): 1.6 | The level of expressed mRNA in the presence of chemical substance/The level of expressed mRNA in the absence of chemical substance (yeast gene YKL091C): 1.1 | The level of expressed mRNA in the presence of chemical substance/The level of expressed mRNA in the absence of chemical substance (yeast gene YKL104C): 3.3 | level of expressed mRNA in the presence/in the absence of chemical substance (yeast gene YKL148C): 0.6 | The level of expressed mRNA in the presence of chemical substance/The level of expressed mRNA in the absence of chemical substance (yeast gene YKL152C): 1.8 | level of expressed mRNA in the presence/in the absence of chemical substance (yeast gene YKL157W): 1.2 | The level of expressed mRNA in the presence of chemical substance/The level of expressed mRNA in the absence of chemical substance (yeast gene YKL213C): 1.1 | The level of expressed mRNA in the presence of chemical substance/The level of expressed mRNA in the absence of chemical substance (yeast gene YKL215C): 0.9 | level of expressed mRNA in the presence/in the absence of chemical substance (yeast gene YKR034W): 1.7 | level of expressed mRNA in the presence/in the absence of chemical substance (yeast gene YLR006C): 0.9 | level of expressed mRNA in the presence/in the absence of chemical substance (yeast gene YLR044C): 2.2 | level of expressed mRNA in the presence/in the absence of chemical substance (yeast gene YLR056W): 0.9 | level of expressed mRNA in the presence/in the absence of chemical substance (yeast gene YLR058C): 1.5 | level of expressed mRNA in the presence/in the absence of chemical substance (yeast gene YLR081W): 0.7 | level of expressed mRNA in the presence/in the absence of chemical substance (yeast gene YLR089C): 1.7 | The level of expressed mRNA in the presence of chemical substance/The level of expressed mRNA in the absence of chemical substance (yeast gene YLR180W): 2.5 | level of expressed mRNA in the presence/in the absence of chemical substance (yeast gene YLR284C): 1.0 | The level of expressed mRNA in the presence of chemical substance/The level of expressed mRNA in the absence of chemical substance (yeast gene YLR299W): 1.5 | The level of expressed mRNA in the presence of chemical substance/The level of expressed mRNA in the absence of chemical substance (yeast gene YLR300W): 2.7 | level of expressed mRNA in the presence/in the absence of chemical substance (yeast gene YLR304C): 1.6 | The level of expressed mRNA in the presence of chemical substance/The level of expressed mRNA in the absence of chemical substance (yeast gene YLR307W): 3.9 | The level of expressed mRNA in the presence of chemical substance/The level of expressed mRNA in the absence of chemical substance (yeast gene YLR348C): 2.4 | level of expressed mRNA in the presence/in the absence of chemical substance (yeast gene YLR354C): 2.4 | level of expressed mRNA in the presence/in the absence of chemical substance (yeast gene YLR372W): 0.7 | level of expressed mRNA in the presence/in the absence of chemical substance (yeast gene YML022W): 0.6 | The level of expressed mRNA in the presence of chemical substance/The level of expressed mRNA in the absence of chemical substance (yeast gene YML054C): 1.1 | The level of expressed mRNA in the presence of chemical substance/The level of expressed mRNA in the absence of chemical substance (yeast gene YML070W): 0.9 | level of expressed mRNA in the presence/in the absence of chemical substance (yeast gene YMR011W): 0.6 | level of expressed mRNA in the presence/in the absence of chemical substance (yeast gene YMR015C): 1.2 | level of expressed mRNA in the presence/in the absence of chemical substance (yeast gene YMR083W): 1.3 | The level of expressed mRNA in the presence of chemical substance/The level of expressed mRNA in the absence of chemical substance (yeast gene YMR105C): 0.9 | The level of expressed mRNA in the presence of chemical substance/The level of expressed mRNA in the absence of chemical substance (yeast gene YMR189W): 5.6 | level of expressed mRNA in the presence/in the absence of chemical substance (yeast gene YMR205C): 0.9 | level of expressed mRNA in the presence/in the absence of chemical substance (yeast gene YMR261C): 0.8 | The level of expressed mRNA in the presence of chemical substance/The level of expressed mRNA in the absence of chemical substance (yeast gene YMR271C): 0.6 | The level of expressed mRNA in the presence of chemical substance/The level of expressed mRNA in the absence of chemical substance (yeast gene YMR296C): 6.7 | level of expressed mRNA in the presence/in the absence of chemical substance (yeast gene YMR323W): 37.3 | The level of expressed mRNA in the presence of chemical substance/The level of expressed mRNA in the absence of chemical substance (yeast gene YNL012W): 1.6 | level of expressed mRNA in the presence/in the absence of chemical substance (yeast gene YNL025C): 1.4 | The level of expressed mRNA in the presence of chemical substance/The level of expressed mRNA in the absence of chemical substance (yeast gene YNL037C): 0.9 | The level of expressed mRNA in the presence of chemical substance/The level of expressed mRNA in the absence of chemical substance (yeast gene YNL045W): 0.8 | The level of expressed mRNA in the presence of chemical substance/The level of expressed mRNA in the absence of chemical substance (yeast gene YNL104C): 2.5 | The level of expressed mRNA in the presence of chemical substance/The level of expressed mRNA in the absence of chemical substance (yeast gene YNL106C): 3.3 | level of expressed mRNA in the presence/in the absence of chemical substance (yeast gene YNL192W): 2.1 | The level of expressed mRNA in the presence of chemical substance/The level of expressed mRNA in the absence of chemical substance (yeast gene YNL231C): 0.9 | The level of expressed mRNA in the presence of chemical substance/The level of expressed mRNA in the absence of chemical substance (yeast gene YNL331C): 2.3 | The level of expressed mRNA in the presence of chemical substance/The level of expressed mRNA in the absence of chemical substance (yeast gene YNL332W): 5.4 | The level of expressed mRNA in the presence of chemical substance/The level of expressed mRNA in the absence of chemical substance (yeast gene YNR002C): 1.0 | The level of expressed mRNA in the presence of chemical substance/The level of expressed mRNA in the absence of chemical substance (yeast gene YNR019W): 1.6 | The level of expressed mRNA in the presence of chemical substance/The level of expressed mRNA in the absence of chemical substance (yeast gene YNR033W): 1.3 | The level of expressed mRNA in the presence of chemical substance/The level of expressed mRNA in the absence of chemical substance (yeast gene YNR059W): 1.0 | The level of expressed mRNA in the presence of chemical substance/The level of expressed mRNA in the absence of chemical substance (yeast gene YOL058W): 2.7 | level of expressed mRNA in the presence/in the absence of chemical substance (yeast gene YOL086C): 1.6 | level of expressed mRNA in the presence/in the absence of chemical substance (yeast gene YOL108C): 1.5 | level of expressed mRNA in the presence/in the absence of chemical substance (yeast gene YOL116W): 0.7 | The level of expressed mRNA in the presence of chemical substance/The level of expressed mRNA in the absence of chemical substance (yeast gene YOL126C): 1.4 | The level of expressed mRNA in the presence of chemical substance/The level of expressed mRNA in the absence of chemical substance (yeast gene YOL143C): 1.0 | The level of expressed mRNA in the presence of chemical substance/The level of expressed mRNA in the absence of chemical substance (yeast gene YOL153C): 1.2 | level of expressed mRNA in the presence/in the absence of chemical substance (yeast gene YOL156W): 1.9 | level of expressed mRNA in the presence/in the absence of chemical substance (yeast gene YOR002W): 1.5 | level of expressed mRNA in the presence/in the absence of chemical substance (yeast gene YOR085W): 1.8 | level of expressed mRNA in the presence/in the absence of chemical substance (yeast gene YOR103C): 1.4 | level of expressed mRNA in the presence/in the absence of chemical substance (yeast gene YOR108W): 0.7 | level of expressed mRNA in the presence/in the absence of chemical substance (yeast gene YOR128C): 1.6 | The level of expressed mRNA in the presence of chemical substance/The level of expressed mRNA in the absence of chemical substance (yeast gene YOR130C): 1.0 | The level of expressed mRNA in the presence of chemical substance/The level of expressed mRNA in the absence of chemical substance (yeast gene YOR136W): 1.2 | level of expressed mRNA in the presence/in the absence of chemical substance (yeast gene YOR142W): 1.1 | level of expressed mRNA in the presence/in the absence of chemical substance (yeast gene YOR176W): 0.8 | level of expressed mRNA in the presence/in the absence of chemical substance (yeast gene YOR178C): 1.1 | level of expressed mRNA in the presence/in the absence of chemical substance (yeast gene YOR251C): 0.6 | The level of expressed mRNA in the presence of chemical substance/The level of expressed mRNA in the absence of chemical substance (yeast gene YOR336W): 0.6 | level of expressed mRNA in the presence/in the absence of chemical substance (yeast gene YOR348C): 1.6 | The level of expressed mRNA in the presence of chemical substance/The level of expressed mRNA in the absence of chemical substance (yeast gene YPL017C): 1.0 | level of expressed mRNA in the presence/in the absence of chemical substance (yeast gene YPL028W): 0.6 | level of expressed mRNA in the presence/in the absence of chemical substance (yeast gene YPL057C): 1.1 | level of expressed mRNA in the presence/in the absence of chemical substance (yeast gene YPL135W): 1.5 | level of expressed mRNA in the presence/in the absence of chemical substance (yeast gene YPL148C): 0.6 | level of expressed mRNA in the presence/in the absence of chemical substance (yeast gene YPR113W): 1.0 | level of expressed mRNA in the presence/in the absence of chemical substance (yeast gene YPR165W): 0.9 | The level of expressed mRNA in the presence of chemical substance/The level of expressed mRNA in the absence of chemical substance (yeast gene YPR167C): 0.9 | level of expressed mRNA in the presence/in the absence of chemical substance (yeast gene YPR183W): 0.9
